According to patent US10874636B2, “Application of substituted cinnamamide derivatives in preparation of anti-anxiety medication” (TASLY PHARMACEUTICAL GROUP CO., LTD., priority 2016, dated 2020):

Key:
mice = assay: Elevated plus-maze test for mice; assay type: in vivo, ICR male mice; conditions: 10 mg/kg intragastric for 1 week; in words
Protocol: 247 ICR male mice aged 6-8 weeks with the weight of 18-22 g were taken and fed adaptively for 1 week. Then, these mice were evenly divided, at random, into 19 groups based on their weights. Intragastric administration was conducted once a day according to the drugs and dosages listed in Table 1, which lasted for 7 consecutive days. 20 minutes after administration on the 7th day, the elevated plus-maze test was conducted.
The elevated plus-maze (EPM) for mice were composed of two opposite open arms (50 cm×10 cm) and two opposite enclosed arms (50 cm×10 cm×40 cm), wherein upper portions of the enclosed arms were not capped, an open portion of 10 cm×10 cm was located in the middle of the maze, and the maze was 50 cm away from the ground. The test was conducted in a quite environment at a time period ranging from 13:00 to 18:00.
The open-arms entries (OE) and enclosed-arms entries, as well as the residence time in two arms, of the mice, within 5 minutes, were recorded respectively, and the percentage of the open-arms entries (OE %) and that of the open-arms time (OT %) for each group of mice with respect to the total entries into the two arms and the total residence time in the two arms therein were calculated respectively.
Analysis was conducted using SPSS 11.5 software, and data were represented by x±S, the significance of differences between groups was compared using the analysis of variance, differences were significant while P was less than 0.05.

rats = assay: Drinking conflict experiment for rats (Vogel test); assay type: in vivo, SD male rats; conditions: for Effect on water licks of the rats during the punished session compared with the solvent control groups: 5 mg/kg intragastric for 10 days, in words; for Water licks of rats during punished session: 5 mg/kg intragastric once a day for 10 days, test half an hour after final administration, 3 minutes, 0.3 mA, x±S
Protocol: 230 SD male rats with the weight of 180-220 g were taken and fed adaptively for 1 week. Then, these rats were divided, at random, into 19 groups based on their weights, 12-13 rats in each group. Intragastric administration was conducted one a day according to the drugs and dosages listed in Table 2, which lasted for 10 consecutive days. Water deprivation 48 hours before the final administration, and non-punitive drinking training was conducted on the 9th day; on the 10th day, half an hour after the final intragastric administration of all the groups, the punitive experimental test was conducted.
On the first stage (non-punitive drinking training): after water deprivation for 24 hours, the rats were placed in operation boxes individually to explore thoroughly, until they found bottle mouths and began to lick water, water licks of the rats within 3 minutes under the conditions of no electric shock (the condition was set as follows: the strength of electric shock was 0 mA) were automatically recorded by counters, and rats whose water licks were less than 300 were eliminated. On the second stage (punitive experiment): the above rats which were not eliminated were placed in the operation boxes after continuing the water deprivation for 24 hours (48 hours in total). The rats could find the bottle mouths rapidly and begin to lick water, the instruments began to time automatically and imparted one electric shock (the ratio of licks to the number of electric shocks was 20:1) while the water licks reached to 20, wherein the strength of electric shocks was 0.3 mA, lasting for 2 seconds, but these rats may control the length of the time for which they were electrically shocked by keeping away from the bottle mouths. Water licks of the rats during the punished session (3 minutes) were recorded.
Observational indexes of the Vogel drinking conflict model: water licks of the rats during the punished session.

Row | Compound | Effect on open-arms entries of the mice compared with the solvent control groups (mice) | Effect on open-arms time of the mice compared with the solvent control groups (mice) | Effect on water licks of the rats during the punished session compared with the solvent control groups (rats) | Water licks of rats during punished session (rats)
1 | COc1cc(/C=C/C=C/C(=O)NCC(C)C)cc(C(F)(F)F)c1OC [III-13, 5-(5′-trifluoromethyl-3′,4′-dimethoxyphenyl) pentadienoic acid isobutylamide] | increase the open-arms entries of the mice | prolong their open-arms time | increase water licks of the rats during the punished session | 375.67 ± 58.13
2 | CC(C)CNC(=O)/C=C/c1cc(Cl)c2c(c1)OCO2 [II-4, 5′-chlorine-3′,4′-methylenedioxy cinnamic acid isobutylamide] | increase the open-arms entries of the mice | prolong their open-arms time | increase water licks of the rats during the punished session | 477.22 ± 66.66
3 | CC(C)CNC(=O)/C=C/c1cc2c(c(C(F)(F)F)c1)OCO2 [II-5, 5′-trifluoromethyl-3′,4′-methylenedioxy cinnamic acid isobutylamide] | increase the open-arms entries of the mice | prolong their open-arms time | increase water licks of the rats during the punished session | 469.11 ± 50.51
4 | CC(C)CNC(=O)c1cc2c(c(C(F)(F)F)c1)OCO2 [II-12, 5-trifluoromethyl-3′,4′-methylenedioxy benzoic acid isobutylamide] | increase the open-arms entries of the mice | prolong their open-arms time | increase water licks of the rats during the punished session | 402.67 ± 50.35
5 | CC(C)CNC(=O)/C=C/c1cc(O)c(O)c(C(F)(F)F)c1 [III-7, 3′,4′-dihydroxyl-5′-trifluoromethyl-cinnamic acid isobutylamide] | increase the open-arms entries of the mice | prolong their open-arms time | increase water licks of the rats during the punished session | 378.33 ± 54.97
6 | CC(C)CNC(=O)c1cc(O)c(O)c(C(F)(F)F)c1 [III-11, 3,4-dihydroxyl-5-trifluoromethyl-benzoic acid isobutylamide] | increase the open-arms entries of the mice | prolong their open-arms time | increase water licks of the rats during the punished session | 361.13 ± 38.38
7 | CN1CCN(C(=O)/C=C/CCc2cc3c(c(C(F)(F)F)c2)OCO3)CC1.Cl [II-13, (E)-N-(4-methylpiperazinyl)-5-(5′-trifluoromethyl-3′,4′-methylenedioxyphenyl)-1-pentene amide hydrochloride] | increase the open-arms entries of the mice | prolong their open-arms time | increase water licks of the rats during the punished session | 393.44 ± 48.99
8 | CC(C)CNC(=O)CCc1cc2c(c(C(F)(F)F)c1)OCO2 [II-11, 3-(5′-trifluoromethyl-3′,4′-methylenedioxyphenyl)-propionic acid isobutylamide] | increase the open-arms entries of the mice | prolong their open-arms time | increase water licks of the rats during the punished session | 426.25 ± 37.29
9 | COc1cc(/C=C/C(=O)NCC(C)C)cc(C(F)(F)F)c1OC [III-2, 3′,4′-dimethoxy-5′-trifluoromethyl-cinnamic acid isobutylamide] | increase the open-arms entries of the mice | prolong their open-arms time | increase water licks of the rats during the punished session | 368.00 ± 39.59
10 | N-methyl-(5′-trifluoromethyl-3′,4′-methylenedioxy)-amphetamine hydrochloride [II-16] | increase the open-arms entries of the mice | prolong their open-arms time | increase water licks of the rats during the punished session | 406.56 ± 65.38
